PMC5882164, “A novel calcimimetic agent, evocalcet (MT-4580/KHK7580), suppresses the parathyroid cell function with little effect on the gastrointestinal tract or CYP isozymes in vivo and in vitro” (PLoS ONE, 2018)

Assays:
Test in all cases: CYP inhibition assay in human liver microsomes
Type in all cases: in vitro ADME
[1] = biological target: T1, CYP2A6 (Homo sapiens, UniProt P11509); conditions: no pre-incubation, read-out: IC50 direct inhibition of CYP2A6
T1 construct: from tissue; host or cells: human liver microsomes
T1 sequence (P11509 1-494): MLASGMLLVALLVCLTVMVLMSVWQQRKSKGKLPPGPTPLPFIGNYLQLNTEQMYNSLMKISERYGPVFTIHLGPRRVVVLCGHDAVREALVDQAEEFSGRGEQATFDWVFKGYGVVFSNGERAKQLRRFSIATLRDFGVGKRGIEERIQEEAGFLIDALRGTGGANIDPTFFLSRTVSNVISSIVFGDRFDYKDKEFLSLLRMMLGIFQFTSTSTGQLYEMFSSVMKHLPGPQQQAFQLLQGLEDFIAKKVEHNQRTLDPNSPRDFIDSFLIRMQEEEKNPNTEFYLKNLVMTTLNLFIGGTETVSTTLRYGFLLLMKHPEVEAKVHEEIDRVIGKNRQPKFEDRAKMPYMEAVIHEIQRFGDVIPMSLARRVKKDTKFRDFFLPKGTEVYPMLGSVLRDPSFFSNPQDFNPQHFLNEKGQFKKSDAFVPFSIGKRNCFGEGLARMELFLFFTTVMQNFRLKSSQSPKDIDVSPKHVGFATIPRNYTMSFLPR
Method: (§1) The direct inhibition of evocalcet (0.15~50 μM, 6-point concentrations) against the specific activities of 9 CYP isozymes (CYP1A2, CYP2A6, CYP2B6, CYP2C8, CYP2C9, CYP2C19, CYP2D6, CYP2E1, and CYP3A4/5) was examined in human liver microsomes without the pre-incubation of evocalcet, in the presence of the NADPH-generating system. Each CYP substrate was incubated with human liver microsomes in the absence or presence of evocalcet, and the inhibition of evocalcet for each CYP isozyme was measured.

[2] = biological target: CYP2D6 (Homo sapiens, UniProt P10635); conditions: no pre-incubation
Sequence of CYP2D6 (P10635 whole entry): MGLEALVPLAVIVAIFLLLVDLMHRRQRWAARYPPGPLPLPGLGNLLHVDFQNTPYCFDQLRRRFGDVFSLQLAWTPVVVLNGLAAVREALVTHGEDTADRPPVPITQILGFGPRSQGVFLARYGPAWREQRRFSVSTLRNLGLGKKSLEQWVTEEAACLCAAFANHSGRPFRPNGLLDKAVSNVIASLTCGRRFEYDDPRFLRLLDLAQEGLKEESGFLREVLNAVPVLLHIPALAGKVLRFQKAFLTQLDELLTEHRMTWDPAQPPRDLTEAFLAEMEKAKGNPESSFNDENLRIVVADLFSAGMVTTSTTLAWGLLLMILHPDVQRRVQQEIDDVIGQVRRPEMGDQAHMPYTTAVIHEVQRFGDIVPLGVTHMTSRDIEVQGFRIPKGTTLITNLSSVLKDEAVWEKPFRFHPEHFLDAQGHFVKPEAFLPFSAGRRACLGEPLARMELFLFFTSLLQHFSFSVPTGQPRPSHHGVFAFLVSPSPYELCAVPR
Method: as §1

[3] = system: CYP3A4/5; conditions: no pre-incubation, read-out: IC50 direct inhibition of CYP3A4/5
Method: as §1

[4] = biological target: T2, CYP2E1 (Homo sapiens, UniProt P05181); conditions: no pre-incubation, read-out: IC50 direct inhibition of CYP2E1
T2 construct: from tissue; host or cells: human liver microsomes
T2 sequence (P05181 whole entry): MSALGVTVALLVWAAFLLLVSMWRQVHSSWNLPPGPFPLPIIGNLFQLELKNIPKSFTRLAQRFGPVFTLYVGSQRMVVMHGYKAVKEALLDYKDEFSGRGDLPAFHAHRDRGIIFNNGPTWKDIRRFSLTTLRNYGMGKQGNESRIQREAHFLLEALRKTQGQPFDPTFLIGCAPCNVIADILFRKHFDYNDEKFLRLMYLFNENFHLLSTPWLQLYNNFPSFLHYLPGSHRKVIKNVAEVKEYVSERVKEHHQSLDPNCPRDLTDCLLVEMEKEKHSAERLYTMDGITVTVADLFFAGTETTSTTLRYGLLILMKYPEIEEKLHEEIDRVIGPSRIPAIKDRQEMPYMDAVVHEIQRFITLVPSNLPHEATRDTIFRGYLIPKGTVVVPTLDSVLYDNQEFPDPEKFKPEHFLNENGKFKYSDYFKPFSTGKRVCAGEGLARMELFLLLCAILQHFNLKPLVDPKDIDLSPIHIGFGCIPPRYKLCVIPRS
Method: as §1

[5] = biological target: T3, CYP2B6 (Homo sapiens, UniProt P20813); conditions: no pre-incubation, read-out: IC50 direct inhibition of CYP2B6
T3 construct: from tissue; host or cells: human liver microsomes
T3 sequence (P20813 1-491): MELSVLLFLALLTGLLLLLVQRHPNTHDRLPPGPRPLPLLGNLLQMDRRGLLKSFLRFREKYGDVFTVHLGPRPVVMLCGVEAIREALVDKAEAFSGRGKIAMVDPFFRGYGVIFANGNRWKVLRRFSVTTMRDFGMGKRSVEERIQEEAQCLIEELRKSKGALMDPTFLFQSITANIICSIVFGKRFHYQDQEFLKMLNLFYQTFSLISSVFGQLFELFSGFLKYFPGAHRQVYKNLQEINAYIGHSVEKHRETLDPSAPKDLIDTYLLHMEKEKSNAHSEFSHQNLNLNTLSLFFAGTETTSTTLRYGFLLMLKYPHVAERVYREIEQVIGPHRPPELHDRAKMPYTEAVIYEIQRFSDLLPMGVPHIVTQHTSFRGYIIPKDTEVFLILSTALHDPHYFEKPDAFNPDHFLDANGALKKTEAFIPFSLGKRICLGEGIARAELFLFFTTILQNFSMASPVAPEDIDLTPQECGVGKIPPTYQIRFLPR
Method: as §1

[6] = biological target: T4, CYP2C8 (Homo sapiens, UniProt P10632); conditions: no pre-incubation, read-out: IC50 direct inhibition of CYP2C8
T4 construct: from tissue; host or cells: human liver microsomes
T4 sequence (P10632 1-490): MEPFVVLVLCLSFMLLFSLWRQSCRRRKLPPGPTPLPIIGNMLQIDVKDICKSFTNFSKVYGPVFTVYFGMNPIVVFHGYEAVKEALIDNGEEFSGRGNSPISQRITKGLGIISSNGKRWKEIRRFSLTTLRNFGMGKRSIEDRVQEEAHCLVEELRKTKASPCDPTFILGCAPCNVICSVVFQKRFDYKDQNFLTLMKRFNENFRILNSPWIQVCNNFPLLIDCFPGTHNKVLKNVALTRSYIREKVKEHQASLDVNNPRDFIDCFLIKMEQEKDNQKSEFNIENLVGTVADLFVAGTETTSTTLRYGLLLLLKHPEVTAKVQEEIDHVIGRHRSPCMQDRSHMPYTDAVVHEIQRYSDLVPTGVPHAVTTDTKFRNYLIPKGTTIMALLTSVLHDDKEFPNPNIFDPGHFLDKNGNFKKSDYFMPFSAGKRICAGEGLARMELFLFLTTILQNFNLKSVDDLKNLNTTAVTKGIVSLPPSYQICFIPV
Method: as §1

C[C@@H](N[C@H]1CCN(c2ccc(CC(=O)O)cc2)C1)c1cccc2ccccc12 [evocalcet]
50.7%: CYP2D6 activity in the presence of evocalcet ([2]; 50 μM evocalcet, direct inhibition)
> 50 µM: IC50 [1] | IC50 ([2]; read-out: IC50 direct inhibition of CYP2D6) | IC50 [3] | IC50 [4] | IC50 [5] | IC50 [6]
